In patent US20250368959A1, “COMPOSITIONS AND METHODS FOR DIFFERENTIATING STEM CELLS INTO NK CELLS” (CRISPR THERAPEUTICS AG, priority 2022, published 2025):

Columns and labels:
Format in all cases: cell-based, human
CD56^+ cells = experiment: CD45/CD56 expression on day 28 after iPSC-HSPC differentiation optimization
Procedure: For iPSC-HSPC differentiation optimization, CD45/CD56 expression on day 28 was measured (FIG. 10). The HSPC cells on day 6 were further differentiated to iNK in the StemPro-34-based differentiation media Table 12) in the presence of IL7, IL15, SCF. Flt3lFlt3l, (IL3 was added for days 6-14 only). […] However, it was not an optimal condition as the single cells production and expansion was lower than in conditions in the presence of Activin A molecule (data not shown). Due to low CD56^+ cells formation on day 28, the HSPC to iNK differentiation conditions was optimized.

CD45^+CD56^+ cells = experiment: Effect of CHIR-99021 concentration in NK-MED-005 medium on iNK induction; conditions: 2.5, 3.5 or 4.5 μM in NK-MED-005c, AP2.0, day 20
Procedure: To determine the optimal concentration of CHIR-99021, different concentrations (2.5 μM, 3.5 μM or 4.5 μM) were added to the NK-MED-005c medium (Table 30) to test their effect on iNK induction. Differentiation proceeded according to Protocol 2 (AP2.0) as described in Example 11. Cells were collected and analyzed using flow cytometry to detect CD45^+CD56^+ cells at differentiation day 20.

[1] = system: iNK cell induction from HSPC; experiment: Design of Experiment (DoE) I and β-mercaptoethanol test, day 6 to day 20; conditions: for direction of effect in DoE I: differentiation and cell number at day 20
Procedure: A design of Experiment (DoE) study was performed to determine the concentrations of zinc sulfate, β-mercaptoethanol, human serum, and glucose that would provide the most differentiation and increased number of cells at differentiation day 20. These factors were selected based on known chemical/biological effects of them in affect general cell proliferation and differentiation. Potential positive/negative involvement of β-mercaptoethanol, zinc ion, human serum, and glucose in NK cell or lymphocyte cell proliferation, killer cell receptor function, and cytotoxicity have been previously reported. There were no known studies conducted on testing optimal range of these factors in NK cell induction from HSPC.
To determine the effects of β-mercaptoethanol on differentiation, CD45+ and CD56+ expression was measured in cells cultured in Stempro34 media, DMEM/F12 media with low zinc, low human serum, and no β-mercaptoethanol (bME), or DMEM/F12 media with low zinc, low human serum, and 50 μM β-mercaptoethanol.
A second DoE experiment (DoE II) was subsequently performed to further optimize the concentrations of zinc, β-mercaptoethanol, human serum albumin, and glucose.

[2] = system: blood lineage markers, CD33; experiment: Effect of WNT-C59 in NK-MED-006 medium on iNK induction; conditions: 2 μM in NK-MED-006, AP2.0, day 20 cultures
Procedure: The effect of including WNT-C59 (2 μM) in NK-MED-006 medium during iNK induction using the AP2.0 protocol was examined. […] The addition of WNT-C59 increased proportion of cells expressing non-NK lineage markers.

CD45^+/CD56^+ cells = experiment: Stage II base media comparison (Stempro34 vs DMEM/F12 and others), Day 21 single cells
Procedure: This Example investigates the use of various alternative base media that can be used for Stage II differentiation. […] The HSPC to iNK differentiation from day 6 further on was done in StemPro-34-based media (Table 12). […] In this Example, the […] until day 6 as described in Example 2 (i.e., steps 1-5). Each media was supplemented with 20 ng/mL IL7, 20 ng/mL IL15, 20 ng/mL SCF, 20 ng/mL Flt3lFlt3l and 5 ng/mL of IL-3 for days 6-14 and 20 ng/mL IL7, 20 ng/mL IL15, 20 ng/mL SCF, 20 ng/mL Flt3lFlt3l for days 14-21 of differentiation.
Day 21 single cells were profiled for CD45^+/CD56^+, CD56^+/NKG2D^+, CD56^+/CD94^+, and CD56^+/CD16^+ expression (FIG. 12). […] The DMEM/F12 2:1 basal media was chosen due to its price and higher availability for scale up production.

For `Cc1cnc(-c2cnc(NCCNc3ccc(C#N)cn3)nc2-c2ccc(Cl)cc2Cl)[nH]1` [CHIR-99021, 6-[[2-[[4-(2,4-Dichlorophenyl)-5-(5-methyl-1H-imidazol-2-yl)-2-pyrimidinyl]amino]ethyl]amino]-3-pyridinecarbonitrile], the “single cells production and expansion” value (CD56^+ cells; CHIR-99021 alone versus conditions with Activin A, data not shown) was “lower”, the “CD56^+ percentage, rank among conditions” value (CD56^+ cells; day 28, StemPro-34-based media, condition #5) was “highest CD56^+ percentage” and the “amount giving the highest proportion of CD45^+CD56^+ cells” value (CD45^+CD56^+ cells) was “moderate amount”.
In the case of `O=S(=O)([O-])[O-].[Zn+2]` [Zinc sulfate], the “direction of effect in DoE I” value [1] was “positive effect”.
`Cc1cc(-c2ccc(CC(=O)Nc3ccc(-c4cccnc4)cc3)cc2)ccn1` [WNT-C59] was tested, and the “proportion of cells expressing non-NK lineage markers” value [2] was “increased” and the “proportion of iNK that expressed the myeloid progenitor marker CD33” value [2] was “altered”.
For `OCCS` [β-mercaptoethanol], the “CD45^+/CD56^+ cells” value (CD45^+/CD56^+ cells; StemPro34, bME 55 μM, 1 μM, 0 μM (samples #1, #2, #3), day 21) was 60% to 90%, the “effect on iNK differentiation” value (CD45^+/CD56^+ cells; StemPro-based media, day 6 to day 21) was “prevented iNK differentiation” and the “effect on iNK cell induction (CD45+, CD56+ expression)” value ([1]; 50 μM in DMEM/F12 with low zinc, low human serum) was “negative effect”. For the same compound, the “direction of effect in DoE I” value [1] was “negative effect”.
